Results on six compounds are retold here after patent US20110059886A1, “HCV NS3-NS4A Protease Inhibition” (priority 2004, published 2011).

As a reminder, the Km is the substrate concentration at which the rate is half of its maximum. As usually defined, the kcat/Km is the turnover number divided by the Michaelis constant.

Like-named read-outs stand apart in the source and are kept apart here. Non-standard residues stand in square brackets, D forms with d. Residues, ends and D or L forms follow the SMILES beside them. Abu = CC[C@H](N)C(=O)O

For data set [1], the target named is T1, HCV NS3 protease genotype 3a (Hepatitis C virus genotype 3a, UniProt Q81258, I1084M/L1045K/S1134A/S1198A).
T1 construct: DNA fragment encoding residues Ala^1-Ser^181 of several isolates of genotype 2a or 2b; hexa-histidine (C); made in house; host or cells: E. coli BL21/DE3 pLysS
Put plainly: Kinetic parameters of NS5AB substrate, HPLC peptide cleavage assay. It is filed as biochemical. How it is done:
(§1) Peptide sequences are shown below.
(§2) For determination of the kinetic parameters Km and Vmax, the NS5AB substrate was varied between 3 μM and 200 μM. The ratio of the product peak area to the reaction time yielded a rate of enzyme catalyzed hydrolysis. These rate vs. substrate concentration data points were fit to the Michaelis-Menten equation using non-linear regression. The value of kcat was determined from Vmax using the nominal protease concentration and a fully cleaved substrate peptide as an instrument calibration standard.

The target in data set [2] is T2, HCV NS3 protease genotype 2a (Hepatitis C virus genotype 2a, UniProt P26660, L1043K/T1046A/V1183I).
T2 construct: DNA fragment encoding residues Ala^1-Ser^181 of several isolates of genotype 2a or 2b; hexa-histidine (C); made in house; host or cells: E. coli BL21/DE3 pLysS
The description is as above. The class given is biochemical. How it is done:
as §1, §2

Another data set addresses NS3-4A serine protease (Hepatitis C virus genotype 1a, UniProt P27958). Put plainly: Enzyme assays with KK-4A peptide and FRET substrate, mode of binding.
Data set [3] concerns the target T2, HCV NS3 protease genotype 2a. Put plainly: Progress curve analysis of slow binding inhibition. The class given is biochemical.
From the text: (§5) F(t)=Vs×t+(Vi−Vs)×(1−exp (−kobs×t))/kobs+C Equation 1:
(§6) kobs=koff+(kon×[I])/(1+[S]/Km) Equation 2:
Data set [4] addresses T1, HCV NS3 protease genotype 3a. Put plainly: Fluorescence peptide assay, potency with extended incubation. The class given is biochemical. Particulars: IC50 after extended preincubation taken as Ki of tightly bound complex, read-out: Ki following extended incubation.
Data set [5] has as its target T2, HCV NS3 protease genotype 2a. The data set is described as above. It is filed as biochemical. Particulars: IC50 after extended preincubation taken as Ki of tightly bound complex, read-out: Ki following extended incubation.
In data set [6] the target is T1, HCV NS3 protease genotype 3a. Put plainly: Progress curve analysis of slow binding inhibition. It is filed as biochemical.
From the text: as §5, §6
Data set [7] has the same target. Put plainly: HPLC peptide cleavage assay, apparent Ki. The class given is biochemical. To be noted: 15 min preincubation, NS5AB at Km.
From the text: as §1
(§3) Biophys. Acta. 874, pp. 44-53 (1986)].

Data set [8] deals with T2, HCV NS3 protease genotype 2a. Put plainly: HPLC peptide cleavage assay, apparent Ki. It is filed as biochemical. To be noted: 15 min preincubation, NS5AB at Km.
From the text: as §1, §3

Data set [9] relates to Cells containing hepatitis C virus (HCV) replicon. Put plainly: HCV replicon cell assay. Particulars: 48 h, read-out: (concentration at which 50% inhibition of HCV RNA level is observed). The class given is cell-based. The protocol:
Cells were obtained according to the method of Lohmannn et al., Science, 285, pp. 110-113 (1999). Cells containing hepatitis C virus (HCV) replicon were maintained in DMEM containing 10% fetal bovine serum (FBS), 0.25 mg per ml of G418, with appropriate supplements (media A).
On day 1, replicon cell monolayer was treated with a trypsin:EDTA mixture, removed, and then media A was diluted into a final concentration of 100,000 cells per ml wit. 10,000 cells in 100 ul were plated into each well of a 96-well tissue culture plate, and cultured overnight in a tissue culture incubator at 37° C.
On day 2, compounds (in 100% DMSO) were serially diluted into DMEM containing 2% FBS, 0.5% DMSO, with appropriate supplements (media B). The final concentration of DMSO was maintained at 0.5% throughout the dilution series. […]
A Taqman real-time RT-PCR quantification assay was set up with two sets of specific primers and probe. […] Total RNA extractants from treated HCV replicon cells was added to the PCR reactions for quantification of both HCV and BVDV RNA in the same PCR well. […] The level of HCV RNA in each well was calculated according to a standard curve run in the same PCR plate. The percentage of inhibition or decrease of HCV RNA level due to compound treatment was calculated using the DMSO or no compound control as 0% of inhibition. […]
(In general: In antiviral work, replicon cells carry a viral genome segment that copies itself.)

A further data set has as its target NS3/4A protease. To be noted: WO 02/018369, cited from earlier work.
The target in data set [10] is T1, HCV NS3 protease genotype 3a. Put plainly: Inhibition constant from steady-state rates of progress curves. It is filed as biochemical. Particulars: steady-state portion of progress curves, Morrison fit, read-out: Ki using steady-state rates. The protocol:
(§4) The rates of onset of slow binding inhibition were determined by a modification of the method for measurement of progress curves described by Narjes et al. [Narjes F. et al., Biochemistry 39, pp. 1849-1861 (2000)]. […] The reaction was initiated by addition of an aliquot of pre-heated enzyme stock to the compound-substrate mixture to yield final concentrations of 6 to 12 μM RET-S1 and 0.5 nM to 4 nM HCV NS3 protease. […] T., Adv. Enzymol. Relat. Areas Mol. Biol. 61, pp. 201-301 (1988)].
as §3

Data set [11] has as its target T2, HCV NS3 protease genotype 2a. The data set is described as above. Particulars: steady-state portion of progress curves, Morrison fit, read-out: Ki using steady-state rates. The class given is biochemical. How it is done:
as §4, §3

The test system of data set [12] is CC[C@H](NC(=O)[C@@H](NC(=O)[C@@H](NC(=O)[C@H](CC(=O)O)NC(=O)[C@@H](N)CCC(=O)O)C(C)C)C(C)C)C(=O)N[C@@H](CS)C(=O)N[C@@H](CO)C(=O)N[C@@H](CCSC)C(=O)N[C@@H](CO)C(=O)N[C@@H](Cc1ccc(O)cc1)C(=O)O. Put plainly: purified protein, by the assay type. Particulars: other: genotype 1a; NS5AB substrate; pH 7.8; 40.0 °C.
For data set [13], the target named is NS5AB peptide substrate, based on the NS5A/NS5B cleavage site for genotype 1a HCV.
For data set [14], the target named is RET-S1 fluorescent peptide (AnaSpec, San Jose, Calif.).

T1 sequence (Q81258 1033-1213, looked up, stated change not applied, other chains not shown): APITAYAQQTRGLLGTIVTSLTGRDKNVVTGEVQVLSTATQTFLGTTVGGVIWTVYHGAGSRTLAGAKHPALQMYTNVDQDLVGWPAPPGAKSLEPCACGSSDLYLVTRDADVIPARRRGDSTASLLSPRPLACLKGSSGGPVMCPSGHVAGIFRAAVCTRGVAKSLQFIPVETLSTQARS
Sequence of NS3-4A serine protease (P27958 1027-1208, other chains not shown): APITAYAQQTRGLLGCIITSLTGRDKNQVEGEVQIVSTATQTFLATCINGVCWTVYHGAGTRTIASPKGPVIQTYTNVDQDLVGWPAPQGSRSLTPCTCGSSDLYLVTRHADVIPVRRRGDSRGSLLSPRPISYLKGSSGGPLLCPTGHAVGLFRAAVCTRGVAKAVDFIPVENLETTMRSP

`CC[C@H](NC(=O)[C@@H](NC(=O)[C@@H](NC(=O)[C@H](CC(=O)O)NC(=O)[C@@H](N)CCC(=O)O)C(C)C)C(C)C)C(=O)N[C@@H](CS)C(=O)N[C@@H](CO)C(=O)N[C@@H](CCSC)C(=O)N[C@@H](CO)C(=O)N[C@@H](Cc1ccc(O)cc1)C(=O)O` [NS5AB, NH2-EDVV-(alpha)Abu-CSMSY-COOH] (H-EDVV[Abu]CSMSY-OH): the Km in [1] came to 70 µM; in [2], 11 µM.
As for `CCC[C@H](NC(=O)[C@@H]1[C@H]2CCC[C@H]2CN1C(=O)[C@@H](NC(=O)[C@@H](NC(=O)c1cnccn1)C1CCCCC1)C(C)(C)C)C(=O)C(=O)NC1CC1` [VX-950], at NS3-4A serine protease, the “mode of binding to the NS3-4A serine protease” value is “reversible, covalent, competitive, tight and slow binding”. Besides, the Ki in data set [3] worked out at 67 nM; in [4], 460 nM; in data set [5] it was 37 nM; in data set [6], 440 nM; in data set [7], 650 nM; in [8], 40 nM. Besides, the Ki on NS3/4A protease (read-out: Ki) is 8 nM; at NS3/4A protease (read-out: steady state binding constant (ki*)) it was 3 nM; in data set [10], 270 nM; in [11], 32 nM. Besides, in data set [9], the IC50 was 354 nM.
Consider “HCV NS3 protease genotype 1a (Hepatitis C virus (isolate H77))”, for which, in data set [12], the Michaelis-Menten constant (Km) was found to be 25 µM and the specificity constant (kcat/Km) was determined as 30000 M⁻¹ s⁻¹.
HCV NS3 protease, genotype 1a (enzyme): the kcat/Km came to 30000 M⁻¹ s⁻¹ in [13] and 170000 M⁻¹ s⁻¹ in data set [14].
In the same order, the values of “HCV NS3 serine protease domain, genotype 2a consensus sequence (enzyme)” are 31000 M⁻¹ s⁻¹ and 65000 M⁻¹ s⁻¹.
Turning to “HCV NS3 serine protease domain, genotype 3a consensus sequence (enzyme)”, the kcat/Km in data set [13] was 5200 M⁻¹ s⁻¹; in data set [14] it was 22000 M⁻¹ s⁻¹.
